Data taken from patent publication US10617649B2 (Zhejiang Huahai Pharmaceutical Co., Ltd, priority 2016, dated 2020).

Tests used:
[1] = Content of bacterial endotoxin; settings: excipient used in Example 3
[2] = Stability of azacitidine solution as a function of the preparation temperature; format: physicochemical
[3] = temperature of azacitidine solution higher than 6° C.

Stability of azacitidine in solution, compared between temperatures ([2]; solution prepared at 4-6° C. compared to 2-3° C.) | Stability of azacitidine in solution ([2]; temperature for preparing azacitidine solution controlled at 2-6° C.) | Content of azacitidine in solution [2, 3] | Related substances in solution [2, 3] | Compound | Content of bacterial endotoxin in excipient [1] [EU/g]
– | – | – | – | OC[C@@H](O)[C@@H](O)[C@H](O)[C@H](O)CO [mannitol, Mannitol] | 2.5
the same stability | good stability | significantly decreased | significantly increased | Nc1ncn([C@@H]2O[C@H](CO)[C@@H](O)[C@H]2O)c(=O)n1 [azacitidine, Azacitidine] | –
